Test results published in US20140079836A1, “METHODS AND COMPOSITIONS FOR ALTERING HEALTH, WELLBEING, AND LIFESPAN” (LifeSpan Extension, LLC, priority 2008, published 2014).

System: Drosophila Melanogaster
Assay: Drosophila survival/longevity after antioxidant media
Type: in vivo
Experimental: Drosophila cultures: A wingless variant of Drosophila Melanogaster was purchased from Carolina Biological Supply. These flies were fed nutrient media (Formula 4-24) and experimental flies were collected within 18 hours after hatching to ensure the females were virgin. Culture media: Flies were given a combination of the following: 1) Formula 4-24 without blue coloring for breeding and post exposure to antioxidants. […] 4) 20% sucrose solution on filter paper following AOX incubation to serve as a low nutrient media and known lifespan shortening agent. […] The flies remain in the antioxidant media for 12 days. […] All the flies are examined daily and media changed as required until all the flies have died. The date (post 12 day antioxidant incubation) is recorded. Lifespan results: The cumulative average lifespan of all flies for each group are then computed and compared against the cumulative average of the control (untreated) flies to determine if the Antioxidants increase lifespan. The average lifespan increase is separated by sex as well as combined for both sexes. This lifespan extension is expressed as a percent increase or decrease over control values. Culture media: […] Experimental phase: […] Lifespan results: The cumulative average lifespan of all flies for each group are then computed and compared against the cumulative average of the control (untreated) flies to determine if the antioxidants increase lifespan. The average lifespan increase is separated by sex as well as combined for both sexes.

[1] = 0.01% antioxidant in media from hatching, antioxidant alone
[2] = 0.1% antioxidant in media from hatching, antioxidant alone
[3] = 1% antioxidant in media from hatching, antioxidant alone
[4] = 1% antioxidant media 12 days, then 20% Sucrose
[5] = 1% antioxidant media 12 days, then 20% Sucrose, vs 20% Sucrose
[6] = 1% antioxidant media 12 days, then H2O2 media
[7] = 1% antioxidant media 12 days, then H2O2 media, vs H2O2

COC1=C(OC)C(=O)C(CCCCCCCCCCO)=C(C)C1=O [Idebenone, 6-(10-hydroxydecyl)-2,3-dimethoxy-5-methyl-1,4-benzoquin-one]
average lifespan, Average of Both [1]: 23.4 days | average lifespan, FEMALE [1]: 23.4 days | average lifespan, Average of Both [2]: 10.2 days | average lifespan, FEMALE [2]: 10.2 days | average lifespan, Average of Both [3]: 10 days | average lifespan, FEMALE [3]: 12.4 days | average lifespan, MALE [3]: 8.1 days | average lifespan, Average of Both [4]: 11.89 days | average lifespan, FEMALE [4]: 11.7 days | average lifespan, MALE [4]: 12.11 days | % Change of lifespan over control, Average of Both [5]: +5% | % Change of lifespan over control, FEMALE [5]: −4% | % Change of lifespan over control, MALE [5]: +24% | average lifespan, Average of Both [6]: 5.75 days | average lifespan, FEMALE [6]: 5.50 days | average lifespan, MALE [6]: 5.32 days | % Change of lifespan over control, Average of Both [7]: +8% | % Change of lifespan over control, FEMALE [7]: −7% | % Change of lifespan over control, MALE [7]: +8%
